Data taken from BigSolDB 2.1.

CC(=O)N1CCN(c2ccc(OC[C@@H]3CO[C@@](Cn4ccnc4)(c4ccc(Cl)cc4Cl)O3)cc2)CC1 (racemic)
solubility (mole fraction)
Conditions | 293.2 K | 298.2 K | 303.2 K | 308.2 K | 313.2 K
in isopropanol | 0.000774 | 0.00102 | 0.00136 | 0.00204 | 0.00291
in propylene glycol | 0.00148 | 0.00195 | 0.00264 | 0.0039 | 0.00562
